Source: PMC7529893, “Structural basis for substrate recognition and chemical inhibition of oncogenic MAGE ubiquitin ligases” (Nature Communications, 2020)

Molecular target: T1, MAGE-A11:PCF11 interaction (GST-MAGE-A11 and FAM-PCF11_4) (Homo sapiens, UniProt P43364)
T1 construct: GST-MAGE-A11 MHD (human MAGE-A11 MHD amino acid 218-429); made in house; host or cells: E. coli BL21(DE3)
T1 sequence (P43364 218-429): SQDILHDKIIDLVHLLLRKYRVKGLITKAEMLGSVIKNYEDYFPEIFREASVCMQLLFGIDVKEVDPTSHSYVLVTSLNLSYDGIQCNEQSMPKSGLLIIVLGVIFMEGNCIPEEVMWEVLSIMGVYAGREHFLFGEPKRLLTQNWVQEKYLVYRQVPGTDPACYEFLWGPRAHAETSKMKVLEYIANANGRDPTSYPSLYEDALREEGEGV
Test: TR-FRET primary / single point screen at 15 µM
Type: binding
Settings: single point TR-FRET screening of 797 quinoline compounds against MAGE-A11:PCF11
Outline: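 TR-FRET 520/490 nm emission ratio was read after 90 min at room temperature. Wells held 5 nM GST-MAGE-A11, 5 nM Tb-anti-GST, 200 nM FAM-PCF11_4 and 15 µM compound in Tris pH 7.5 buffer with MgCl2, BSA and DTT. %Inhibition was scaled to DMSO and minus-MAGE-A11 controls.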

| percent inhibition (TR-FRET) | SMILES |
| --- | --- |
| -127.026 | CCCN(CCCNc1c2ccc(Cl)cc2nc2ccc(OC)cc12)Cc1scnc1C [SJ000522976] |
| -166.235 | CCCN(CCCNc1c2ccc(Cl)cc2nc2ccc(OC)cc12)Cc1c[nH]c2ccccc12 [SJ000522978] |
| -107.991 | CCCN(CCCNc1c2ccc(Cl)cc2nc2ccc(OC)cc12)Cc1cccc2c1OCO2 [SJ000522979] |
| -276.65 | CCCN(CCCNc1c2ccc(Cl)cc2nc2ccc(OC)cc12)Cc1cnn(C)c1 [SJ000522980] |
| -212.396 | CCCN(CCCNc1c2ccc(Cl)cc2nc2ccc(OC)cc12)CCOCc1ccccc1 [SJ000522981] |
| -233.73 | CCCN(CCCNc1c2ccc(Cl)cc2nc2ccc(OC)cc12)CCC(C)(C)C [SJ000522983] |
| -302.626 | CCCN(CCCNc1c2ccc(Cl)cc2nc2ccc(OC)cc12)Cc1cccn1C [SJ000522987] |
| -117.531 | CCCN(CCCNc1c2ccc(Cl)cc2nc2ccc(OC)cc12)Cc1nccs1 [SJ000522988] |
| -118.624 | CCCN(CCCNc1c2ccc(Cl)cc2nc2ccc(OC)cc12)Cc1ccc(C(=O)OC)cc1 [SJ000523018] |
| -102.758 | CCCN(CCCNc1c2ccc(Cl)cc2nc2ccc(OC)cc12)Cc1ccc(-c2ccccc2[N+](=O)[O-])o1 [SJ000523019] |
| -169.736 | CCCN(CCCNc1c2ccc(Cl)cc2nc2ccc(OC)cc12)Cc1ccc(-c2cccc(Cl)c2)o1 [SJ000523020] |
| -329.654 | CCCN(CCCNc1c2ccc(Cl)cc2nc2ccc(OC)cc12)Cc1ccc([N+](=O)[O-])o1 [SJ000523022] |
| -127.586 | COc1ccc2nc3cc(Cl)ccc3c(NCCCNCc3ccncc3)c2c1 [SJ000523023] |
| -255.258 | COc1ccc2nc3cc(Cl)ccc3c(NCCCNCc3ccccn3)c2c1 [SJ000523024] |
| -336.863 | COc1ccc2nc3cc(Cl)ccc3c(NCCCNCCCSC)c2c1 [SJ000523025] |
| -353.834 | COc1ccc2nc3cc(Cl)ccc3c(NCCCNCc3ccsc3)c2c1 [SJ000523026] |
| -340.253 | COc1ccc2nc3cc(Cl)ccc3c(NCCCNCCC(C)c3ccccc3)c2c1 (centres unmarked) [SJ000523027] |
| -304.796 | COc1ccc2nc3cc(Cl)ccc3c(NCCCNCc3ccc(C)s3)c2c1 [SJ000523029] |
| -219.419 | COc1ccc2nc3cc(Cl)ccc3c(NCCCNCc3ccc(Br)o3)c2c1 [SJ000523030] |
| -165.325 | COc1ccc2nc3cc(Cl)ccc3c(NCCCNCc3ccco3)c2c1 [SJ000523032] |
| -338.862 | COc1ccc(CNCCCNc2c3ccc(Cl)cc3nc3ccc(OC)cc23)cc1 [SJ000523033] |
| -353.834 | COc1ccc2nc3cc(Cl)ccc3c(NCCCNCc3ccccc3F)c2c1 [SJ000523034] |
| -398.22 | COc1ccc2nc3cc(Cl)ccc3c(NCCCNCc3ccc(F)cc3)c2c1 [SJ000523035] |
| -333.152 | COc1ccc2nc3cc(Cl)ccc3c(NCCCNCc3cccc(C#N)c3)c2c1 [SJ000523037] |
| -109.452 | COc1ccc2nc3cc(Cl)ccc3c(NCCCNCc3ccc4ccccc4c3)c2c1 [SJ000523038] |

Same assay, conditions: single point TR-FRET screening of quinoline compounds against MAGE-A11:PCF11; 15 µM

| percent inhibition (TR-FRET) | SMILES |
| --- | --- |
| 0.2567 | CCCN(CCCNc1c2ccc(Cl)cc2nc2ccc(OC)cc12)Cc1cccnc1Br [SJ000522977] |
| 4.828 | CCCN(CCCNc1ccnc2cc(Cl)ccc12)Cc1c[nH]c(C)n1 [SJ000522990] |
| 9.295 | CCCN(CCCNc1ccnc2cc(Cl)ccc12)Cc1cc2ccccc2o1 [SJ000522991] |
| 29.3392 | CCCN(CCCNc1ccnc2cc(Cl)ccc12)Cc1c[nH]c2ccc(F)cc12 [SJ000522992] |
| 5.864 | CCCN(CCCNc1ccnc2cc(Cl)ccc12)Cc1cc2ccccc2s1 [SJ000522993] |
| 15.1623 | CCCN(CCCNc1ccnc2cc(Cl)ccc12)Cc1ccc(OC)c(F)c1 [SJ000522994] |
| -1.532 | CCCN(CCCNc1ccnc2cc(Cl)ccc12)Cc1cn(C)c2ccccc12 [SJ000522995] |
| 26.6585 | CCCN(CCCNc1ccnc2cc(Cl)ccc12)Cc1cc(OC)ccc1F [SJ000522996] |
| 3.413 | CCCN(CCCNc1ccnc2cc(Cl)ccc12)Cc1nc(C)cs1 [SJ000522997] |
| 12.4462 | C#Cc1ccccc1CN(CCC)CCCNc1ccnc2cc(Cl)ccc12 [SJ000523000] |
| 30.1342 | CCCN(CCCNc1ccnc2cc(Cl)ccc12)Cc1ccc(CC)cc1 [SJ000523001] |
| 6.351 | CCCN(CCCNc1ccnc2cc(Cl)ccc12)Cc1nccn1C [SJ000523002] |
| 4.828 | CCCN(CCCNc1ccnc2cc(Cl)ccc12)Cc1cncc(Br)c1 [SJ000523004] |
| 11.85 | CCCN(CCCNc1ccnc2cc(Cl)ccc12)Cc1scnc1C [SJ000523005] |
| 13.3074 | CCCN(CCCNc1ccnc2cc(Cl)ccc12)Cc1cccnc1Br [SJ000523006] |
| 26.2256 | CCCN(CCCNc1ccnc2cc(Cl)ccc12)Cc1c[nH]c2ccccc12 [SJ000523007] |
| 4.165 | CCCN(CCCNc1ccnc2cc(Cl)ccc12)Cc1ncc[nH]1 [SJ000523008] |
| 10.0613 | CCCN(CCCNc1ccnc2cc(Cl)ccc12)Cc1cnn(C)c1 [SJ000523009] |
| 12.0487 | CCCN(CCCNc1ccnc2cc(Cl)ccc12)Cc1[nH]cnc1C [SJ000523010] |
| 15.666 | CCCN(CCCNc1ccnc2cc(Cl)ccc12)Cc1cc(OC(F)(F)F)ccc1OC [SJ000523011] |
| 30.3991 | CCCN(CCCNc1ccnc2cc(Cl)ccc12)Cc1cc(C(F)(F)F)ccc1OC [SJ000523012] |
| 17.481 | CCCN(CCCNc1ccnc2cc(Cl)ccc12)Cc1cccc(C(F)(F)F)c1 [SJ000523013] |
| 22.7145 | CCCN(CCCNc1ccnc2cc(Cl)ccc12)Cc1cccn1C [SJ000523014] |
| 32.8503 | CCCN(CCCNc1ccnc2cc(Cl)ccc12)Cc1ccc2ccccc2c1 [SJ000523040] |
| 28.5489 | CCCN(CCCNc1ccnc2cc(Cl)ccc12)Cc1cccc(C)c1 [SJ000523041] |
| 16.7163 | CCCN(CCCNc1ccnc2cc(Cl)ccc12)Cc1ccc(C(=O)OC)cc1 [SJ000523042] |
| 12.0952 | CCCN(CCCNc1ccnc2cc(Cl)ccc12)Cc1ccc(Cl)cc1Cl [SJ000523043] |
| 16.2262 | CCCN(CCCNc1ccnc2cc(Cl)ccc12)Cc1ccc(-c2cccc(Cl)c2)o1 [SJ000523045] |
| 17.7459 | CCCN(CCCNc1ccnc2cc(Cl)ccc12)Cc1c(Cl)ccc(Cl)c1Cl [SJ000523046] |
| 9.575 | CCCN(CCCNc1ccnc2cc(Cl)ccc12)Cc1ccc([N+](=O)[O-])o1 [SJ000523047] |

Further lines, the compound ahead of its results:

| SMILES | percent inhibition (TR-FRET) |
| --- | --- |
| CCCN(CCCNc1c2ccc(Cl)cc2nc2ccc(OC)cc12)Cc1cc(F)cc(F)c1O [SJ000522982] | 2.045 |
| CCCN(CCCNc1c2ccc(Cl)cc2nc2ccc(OC)cc12)Cc1cc(OC(F)(F)F)ccc1OC [SJ000522984] | -36.7058 |
| CCCN(CCCNc1c2ccc(Cl)cc2nc2ccc(OC)cc12)Cc1cc(C(F)(F)F)ccc1OC [SJ000522985] | -46.0179 |
| CCCN(CCCNc1c2ccc(Cl)cc2nc2ccc(OC)cc12)Cc1cccc(C(F)(F)F)c1 [SJ000522986] | 16.1546 |
| CCCN(CCCNc1c2ccc(Cl)cc2nc2ccc(OC)cc12)Cc1cc(Br)cs1 [SJ000522989] | -56.7027 |
| CCCN(CCCNc1ccnc2cc(Cl)ccc12)Cc1ccc(OC(F)(F)F)cc1 [SJ000522999] | 22.7376 |
| CCCN(CCCNc1ccnc2cc(Cl)ccc12)CC1CCOC1 (centres unmarked) [SJ000523016] | 9.6638 |
| CCCN(CCCCCC(=O)OC)CCCNc1ccnc2cc(Cl)ccc12 [SJ000523017] | 14.3011 |
| CCCN(CCCNc1c2ccc(Cl)cc2nc2ccc(OC)cc12)Cc1c(Cl)ccc(Cl)c1Cl [SJ000523021] | 40.005 |
| COc1ccc2nc3cc(Cl)ccc3c(NCCCNCc3ccc(N(C)C)c4ccccc34)c2c1 [SJ000523028] | -1.532 |
| COc1ccc2nc3cc(Cl)ccc3c(NCCCNCc3ccccc3N)c2c1 [SJ000523031] | -57.1504 |
| COc1ccc2nc3cc(Cl)ccc3c(NCCCNCc3ccc(Cl)c([N+](=O)[O-])c3)c2c1 [SJ000523036] | -95.379 |
| CCCN(CCCNc1ccnc2cc(Cl)ccc12)Cc1ccc(-c2ccccc2)cc1 [SJ000523039] | 30.2293 |
| CCCN(CCCNc1ccnc2cc(Cl)ccc12)Cc1ccc(-c2ccccc2[N+](=O)[O-])o1 [SJ000523044] | 9.266 |
| CCCCCCN(CCC)CCCNc1ccnc2cc(Cl)ccc12 [SJ000523048] | 1.317 |
| Clc1ccc2c(NCCCNCc3ccncc3)ccnc2c1 [SJ000523049] | 6.077 |
